± gives the expanded uncertainty stated by the source.
How the values were obtained:
[1] = xn = mol fraction of the nth substance listed; settings: 100 kPa, Liquid, Vibrating tube method
[2] = molar heat capacity at constant pressure; xn = mol fraction of the nth substance listed; settings: 100 kPa, Liquid, Large sample (1 g) DSC

Cc1ccc(C(C)C)cc1 [1-(1-methylethyl)-4-methylbenzene] + CCO
Settings	mass density, 298.15 K [kg/m3]	mass density, 308.15 K [kg/m3]	mass density, 318.15 K [kg/m3]	mass density, 328.15 K [kg/m3]	molar heat capacity at constant pressure, 298.6 K [J/K/mol]	molar heat capacity at constant pressure, 308.5 K [J/K/mol]	molar heat capacity at constant pressure, 318.5 K [J/K/mol]	molar heat capacity at constant pressure, 328.4 K [J/K/mol]
[1], x1 = 0.0494	793.49 ± 0.71	784.81 ± 0.71	775.96 ± 0.71	766.9 ± 0.71	–	–	–	–
[1], x1 = 0.0995	800.72 ± 0.71	792.02 ± 0.71	783.15 ± 0.71	774.08 ± 0.71	–	–	–	–
[1], x1 = 0.2	812.35 ± 0.71	803.65 ± 0.71	794.79 ± 0.71	785.71 ± 0.71	–	–	–	–
[1], x1 = 0.3009	821.26 ± 0.71	812.6 ± 0.71	803.77 ± 0.71	794.75 ± 0.71	–	–	–	–
[1], x1 = 0.4037	828.42 ± 0.71	819.8 ± 0.71	811.02 ± 0.71	802.06 ± 0.71	–	–	–	–
[1], x1 = 0.5034	834.18 ± 0.71	825.62 ± 0.71	816.91 ± 0.71	808.04 ± 0.71	–	–	–	–
[1], x1 = 0.6023	838.73 ± 0.71	830.22 ± 0.71	821.58 ± 0.71	812.79 ± 0.71	–	–	–	–
[1], x1 = 0.7017	842.86 ± 0.71	834.43 ± 0.71	825.88 ± 0.71	817.21 ± 0.71	–	–	–	–
[1], x1 = 0.802	846.53 ± 0.71	838.18 ± 0.71	829.75 ± 0.71	821.21 ± 0.71	–	–	–	–
[1], x1 = 0.897	849.61 ± 0.71	841.37 ± 0.71	833.06 ± 0.71	824.68 ± 0.71	–	–	–	–
[1], x1 = 0.9509	851.34 ± 0.71	843.19 ± 0.71	834.99 ± 0.71	826.74 ± 0.71	–	–	–	–
[1], x1 = 1	852.93 ± 0.71	844.89 ± 0.71	836.81 ± 0.71	828.69 ± 0.71	–	–	–	–
[2], x1 = 0.0494	–	–	–	–	121.2 ± 2	126.1 ± 2.1	130.8 ± 2.1	135.6 ± 2.2
[2], x1 = 0.0995	–	–	–	–	130 ± 2.1	134.7 ± 2.2	140.1 ± 2.3	145.9 ± 2.4
[2], x1 = 0.2	–	–	–	–	146.5 ± 2.4	152.2 ± 2.5	157.8 ± 2.6	163.8 ± 2.7
[2], x1 = 0.3009	–	–	–	–	162.2 ± 2.6	168.5 ± 2.7	174.7 ± 2.8	181 ± 2.9
[2], x1 = 0.4037	–	–	–	–	177.7 ± 2.9	183.8 ± 3	190.2 ± 3.1	197 ± 3.2
[2], x1 = 0.5034	–	–	–	–	192.6 ± 3.1	199 ± 3.2	205.4 ± 3.3	211.9 ± 3.4
[2], x1 = 0.6023	–	–	–	–	205.5 ± 3.3	211.8 ± 3.4	219.4 ± 3.6	225.1 ± 3.7
[2], x1 = 0.7017	–	–	–	–	217.6 ± 3.5	224.3 ± 3.6	230.7 ± 3.8	236.9 ± 3.9
[2], x1 = 0.802	–	–	–	–	229.2 ± 3.7	235.3 ± 3.8	240.9 ± 3.9	247 ± 4
[2], x1 = 0.897	–	–	–	–	238.6 ± 3.9	243.1 ± 4	248.4 ± 4	253.8 ± 4.1
[2], x1 = 0.9509	–	–	–	–	240.2 ± 3.9	243.9 ± 4	248.9 ± 4	254.1 ± 4.1
[2], x1 = 1	–	–	–	–	240.3 ± 3.9	244.7 ± 4	249.4 ± 4.1	254.4 ± 4.1

Reference: the NIST ThermoML archive (doi:10.1016/j.jct.2017.03.027)
